Test results: patent US20250290117A1, “MOLECULAR PHENOTYPIC ANTIMICROBIAL SUSCEPTIBILITY TESTING” (priority 2024, published 2025)

Tests used:
Type in all cases: cell-based
[1] = system: Escherichia coli; experiment: Traditional culture-based antimicrobial susceptibility test
Source text: Table 3 illustrates the results of an example antimicrobial agent susceptibility test of the current application versus a traditional culture-based antimicrobial agent susceptibility test for multiple Escherichia coli isolates, in accordance with one or more embodiments of the disclosure. These specimens underwent extraction or DNA purification prior to PCR. As in Tables 1 and 2, the results of the test of the current application are similar to the results from the traditional test. […]
Table 8 illustrates the results of an example antimicrobial agent susceptibility test of the current application versus a traditional culture-based antimicrobial agent susceptibility test for a low level positive with <10,000 cells/mL in the original specimen. These specimens were tested with direct PCR (e.g., no extraction DNA purification step prior to PCR) after 16 hours of incubation. As in Tables 1, 2, 3, 5, and 7, the results of the test are similar to the traditional test. […]

[2] = system: pathogens of clinical samples; experiment: Molecular phenotypic antimicrobial susceptibility test of clinical samples, extraction DNA purification step prior to PCR (Table 6)
Procedure: (§1) Detection of Molecular Phenotypic Antimicrobial Susceptibility. Disclosed herein are the methods for the detection of phenotypic antimicrobial susceptibility via molecular methods. The present invention describes how a specimen 100 with a known microbial load is incubated and then exposed to a panel of antimicrobial agents to determine sensitivity (prevention of growth) or resistance (allowance of growth) to the specific antimicrobial agents tested utilizing molecular methods.
(§2) Sample Collection. Specimens 100 are collected from patients using sterile collection processes that are employed in routine clinical care. Specimens are transported to the testing facility in boric acid preservative.
(§3) Preparation of the Specimens for Testing. […] The process for pathogen isolation includes steps of harvesting the pathogen (e.g., via centrifugation), isolating pathogen DNA via a DNA isolation and/or purification kit, and performing PCR on the pathogen DNA via PCR components (e.g., primers, enzymes, buffers) as would be known to the skilled artisan. […] This aliquot is used for antimicrobial susceptibility testing if indicated based on the pathogen detection results. […] Specimens 100 with lower pathogen loads could also be utilized in the antibiotic susceptibility phase of testing with or without a longer incubation period.
(§4) Preparation of Antimicrobial Susceptibility Testing Plates. Antimicrobial solutions are prepared at known concentrations. The specific antimicrobials and their concentrations are selected based on the pathogen of interest and the described antimicrobial resistance breakpoints for that specimen pathogen and antimicrobial combination. These antimicrobials have been selected based on those commonly utilized by healthcare providers in routine clinical care for the specific type of suspected infection. The number and types of antimicrobials utilized can be customized based on the infection source, pathogen detected, patient-specific factors such as allergies or other health conditions (e.g., chronic kidney disease or concurrent medication use), or healthcare provider preferences such as antimicrobial availability or cost.
(§5) The antimicrobial solutions are prepared in liquid culture media (such as Muller Hinton Broth) to achieve the desired antimicrobial concentration and are then stored at −80° C. until use. For a given specimen, each antimicrobial is tested at a single or multiple antimicrobial concentration(s) which is its established breakpoints for sensitivity. The antimicrobial solutions are prepared and plated out for each specific pathogen. […] This allows for evaluation of pathogen load when no antimicrobial is present.
(§6) Specimen Exposure to Antimicrobial Agents. The 1 mL aliquot of the specimen 100 previously mixed with culture media and incubated is obtained. Using optical density measurements as a guide, the specimen 100 is diluted to 0.5 McFarland.
(§7) Antimicrobial exposure plates are typically placed into an incubator for 12-16 hours.
(§8) Nucleic Acid Amplification of Antimicrobial Agent Exposed Pathogens. The antimicrobial exposure plate is removed after the period of incubation. The specimen then undergoes a purification or lysis step. For example, the specimen may undergo a purification step (e.g., magnetic bead-based or other separation protocol to isolate genetic material). In another example, the specimen may undergo a cell lysis step. For example, buffer (e.g., lysis buffer) may be added and incubated in the thermal cycler for preparation for direct PCR. Next, the specimen may undergo a polymerase chain reaction (PCR) testing protocol, whereby a semi-quantitative PCR method is utilized. This may be completed either with or without a specific extraction protocol step. The pathogens can be individually targeted and detected, or a universal genetic sequence can be utilized to detect the antimicrobial susceptibility of the specimen as a whole.

[3] = system: pathogens of clinical samples; experiment: Molecular phenotypic antimicrobial susceptibility test of clinical samples, direct PCR without a separate DNA purification step (Table 6)
Procedure: as §1, §2, §3, §4, §5, §6, §7, §8

[4] = E. coli, clinical sample of r10-r24
[5] = E. coli, clinical sample of r158-r172
[6] = E. faecalis, clinical sample of r93-r99
[7] = E. faecalis, clinical sample of r100-r106
[8] = E. faecalis, clinical sample of r100-r106, Ct Control Avg 23.073
[9] = E. faecalis, clinical sample of r107-r113, Ct Control Avg 22.144
[10] = E. faecalis, clinical sample of r114-r120
[11] = E. faecalis, clinical sample of r114-r120, Ct Control Avg 20.822
[12] = E. faecalis, clinical sample of r151-r157, Ct Control Avg 20.56
[13] = K. aerogenes, clinical sample of r136-r150
[14] = K. pneumoniae, clinical sample of r121-r135
[15] = M. morganii, clinical sample of r55-r69
[16] = M. morganii, clinical sample of r70-r84
[17] = P. mirabilis, clinical sample of r25-r39
[18] = P. mirabilis, clinical sample of r40-r54
[19] = S. aureus, clinical sample of r85-r92
[20] = E. faecalis, clinical sample of r93-r99, Ct control avg 22.011
[21] = E. faecalis, clinical sample of r100-r106, Ct control avg 21.027
[22] = E. faecalis, clinical sample of r107-r113, Ct control avg 20.529
[23] = E. faecalis, clinical sample of r151-r157, Ct control avg 18.551
[24] = S. aureus, clinical sample of r85-r92, Ct control avg 20.309
[25] = E. faecalis, clinical sample of r107-r113
[26] = E. faecalis, clinical sample of r151-r157

## O=C(O)c1cn(C2CC2)c2cc(N3CCNCC3)c(F)cc2c1=O [Ciprofloxacin]
[1]; E. coli isolate 1 (Table 3)
  Traditional Culture Result: Resistant
[1]; E. coli isolate 2 (Table 3)
  Traditional Culture Result: Resistant
[1]; E. coli isolate 3 (Table 3)
  Traditional Culture Result: Resistant
[1]; E. coli isolate 4 (Table 3)
  Traditional Culture Result: Resistant
[1]; E. coli isolate 5 (Table 3)
  Traditional Culture Result: Sensitive
[1]; E. coli isolate JJ1887
  Traditional Culture Result: Resistant

## CN(C)[C@@H]1C(O)=C(C(N)=O)C(=O)[C@@]2(O)C(O)=C3C(=O)c4c(O)cccc4[C@@](C)(O)[C@H]3C[C@@H]12 [Tetracycline]
[2]; [4]
  Molecular Antibiotic Susceptibility Result: Sensitive (Antimicrobial wells with pathogen load detected below the control wells (typically >2 cycle thresholds later) may be reported as Sensitive)
[2]; E. coli, clinical sample of r10-r24, Ct Control Avg 18.112
  Ct: 28.574
[2]; [5]
  Molecular Antibiotic Susceptibility Result: Sensitive (Antimicrobial wells with pathogen load detected below the control wells (typically >2 cycle thresholds later) may be reported as Sensitive)
[2]; E. coli, clinical sample of r158-r172, Ct Control Avg 20.146
  Ct: 34.28
[2]; [6]
  Molecular Antibiotic Susceptibility Result: Resistant
[2]; E. faecalis, clinical sample of r93-r99, Ct Control Avg 22.987
  Ct: 19.484
[2]; [7]
  Molecular Antibiotic Susceptibility Result: Resistant
[2]; [8]
  Ct: 23.171
[2]; [9]
  Ct: 28.949
[2]; [10]
  Molecular Antibiotic Susceptibility Result: Resistant
[2]; [11]
  Ct: 21.77
[2]; [12]
  Ct: 23.723
[2]; [13]
  Molecular Antibiotic Susceptibility Result: Sensitive (Antimicrobial wells with pathogen load detected below the control wells (typically >2 cycle thresholds later) may be reported as Sensitive)
[2]; K. aerogenes, clinical sample of r136-r150, Ct Control Avg 19.994
  Ct: 37.04
[2]; [14]
  Molecular Antibiotic Susceptibility Result: Sensitive (Antimicrobial wells with pathogen load detected below the control wells (typically >2 cycle thresholds later) may be reported as Sensitive)
[2]; K. pneumoniae, clinical sample of r121-r135, Ct Control Avg 24.272
  Ct: 30.426
[2]; [15]
  Molecular Antibiotic Susceptibility Result: Resistant
[2]; M. morganii, clinical sample of r55-r69, Ct Control Avg 28.86
  Ct: 26.617
[2]; [16]
  Molecular Antibiotic Susceptibility Result: Sensitive (Antimicrobial wells with pathogen load detected below the control wells (typically >2 cycle thresholds later) may be reported as Sensitive)
[2]; [17]
  Molecular Antibiotic Susceptibility Result: Resistant
[2]; P. mirabilis, clinical sample of r25-r39, Ct Control Avg 26.064
  Ct: 24.94
[2]; [18]
  Molecular Antibiotic Susceptibility Result: Resistant
[2]; P. mirabilis, clinical sample of r40-r54, Ct Control Avg 26.987
  Ct: 23.424
[2]; [19]
  Molecular Antibiotic Susceptibility Result: Resistant
[2]; S. aureus, clinical sample of r85-r92, Ct Control Avg 24.32
  Ct: 15.029
[3]; [4]
  Molecular Antibiotic Susceptibility Result: Sensitive (Antimicrobial wells with pathogen load detected below the control wells (typically >2 cycle thresholds later) may be reported as Sensitive)
[3]; E. coli, clinical sample of r10-r24, Ct control avg 12.97
  Ct: 26.521
[3]; [5]
  Molecular Antibiotic Susceptibility Result: Sensitive (Antimicrobial wells with pathogen load detected below the control wells (typically >2 cycle thresholds later) may be reported as Sensitive)
[3]; E. coli, clinical sample of r158-r172, Ct control avg 12.894
  Ct: 30.717
[3]; [6]
  Molecular Antibiotic Susceptibility Result: Resistant
[3]; [20]
  Ct: 21.199
[3]; [7]
  Molecular Antibiotic Susceptibility Result: Resistant
[3]; [21]
  Ct: 20.684
[3]; [22]
  Ct: 28.789
[3]; [10]
  Molecular Antibiotic Susceptibility Result: Resistant
[3]; E. faecalis, clinical sample of r114-r120, Ct control avg 20.909
  Ct: 21.446
[3]; [23]
  Ct: 21.132
[3]; [13]
  Molecular Antibiotic Susceptibility Result: Sensitive (Antimicrobial wells with pathogen load detected below the control wells (typically >2 cycle thresholds later) may be reported as Sensitive)
[3]; K. aerogenes, clinical sample of r136-r150, Ct control avg 13.854
  Ct: 30.787
[3]; [14]
  Molecular Antibiotic Susceptibility Result: Sensitive (Antimicrobial wells with pathogen load detected below the control wells (typically >2 cycle thresholds later) may be reported as Sensitive)
[3]; K. pneumoniae, clinical sample of r121-r135, Ct control avg […]
  Ct: 27.163
[3]; [15]
  Molecular Antibiotic Susceptibility Result: Resistant
[3]; M. morganii, clinical sample of r55-r69, Ct control avg 12.09
  Ct: 9.923
[3]; [16]
  Molecular Antibiotic Susceptibility Result: Resistant
[3]; M. morganii, clinical sample of r70-r84, Ct control avg 11.677
  Ct: 12.206
[3]; [17]
  Molecular Antibiotic Susceptibility Result: Resistant
[3]; P. mirabilis, clinical sample of r25-r39, Ct control avg 11.801
  Ct: 10.301
[3]; [18]
  Molecular Antibiotic Susceptibility Result: Resistant
[3]; P. mirabilis, clinical sample of r40-r54, Ct control avg 10.06
  Ct: 11.498
[3]; [19]
  Molecular Antibiotic Susceptibility Result: Resistant
[3]; [24]
  Ct: 22.653

## CN[C@H](CC(C)C)C(=O)N[C@H]1C(=O)N[C@@H](CC(N)=O)C(=O)N[C@H]2C(=O)N[C@H]3C(=O)N[C@H](C(=O)N[C@H](C(=O)O)c4cc(O)cc(O)c4-c4cc3ccc4O)[C@H](O)c3ccc(c(Cl)c3)Oc3cc2cc(c3O[C@@H]2O[C@H](CO)[C@@H](O)[C@H](O)[C@H]2O[C@H]2C[C@](C)(N)[C@H](O)[C@H](C)O2)Oc2ccc(cc2Cl)[C@H]1O [Vancomycin]
[2]; [6]
  Molecular Antibiotic Susceptibility Result: Sensitive (Antimicrobial wells with pathogen load detected below the control wells (typically >2 cycle thresholds later) may be reported as Sensitive)
[2]; [7]
  Molecular Antibiotic Susceptibility Result: sensitive
[2]; [8]
  Ct: 37.981
[2]; [25]
  Molecular Antibiotic Susceptibility Result: sensitive
[2]; [9]
  Ct: 32.184
[2]; [10]
  Molecular Antibiotic Susceptibility Result: Sensitive (Antimicrobial wells with pathogen load detected below the control wells (typically >2 cycle thresholds later) may be reported as Sensitive)
[2]; [11]
  Ct: 34.122
[2]; [26]
  Molecular Antibiotic Susceptibility Result: Sensitive (Antimicrobial wells with pathogen load detected below the control wells (typically >2 cycle thresholds later) may be reported as Sensitive)
[2]; [12]
  Ct: Undet
[2]; [19]
  Molecular Antibiotic Susceptibility Result: Resistant
[3]; [6]
  Molecular Antibiotic Susceptibility Result: Sensitive (Antimicrobial wells with pathogen load detected below the control wells (typically >2 cycle thresholds later) may be reported as Sensitive)
[3]; [20]
  Ct: 30.062
[3]; [7]
  Molecular Antibiotic Susceptibility Result: sensitive
[3]; [21]
  Ct: 35.563
[3]; [25]
  Molecular Antibiotic Susceptibility Result: sensitive
[3]; [22]
  Ct: 29.81
[3]; [10]
  Molecular Antibiotic Susceptibility Result: Sensitive (Antimicrobial wells with pathogen load detected below the control wells (typically >2 cycle thresholds later) may be reported as Sensitive)
[3]; [26]
  Molecular Antibiotic Susceptibility Result: Sensitive (Antimicrobial wells with pathogen load detected below the control wells (typically >2 cycle thresholds later) may be reported as Sensitive)
[3]; [23]
  Ct: 35.428
[3]; [19]
  Molecular Antibiotic Susceptibility Result: Resistant
[3]; [24]
  Ct: 21.258
